Results taken from PubChem BioAssay AID651796 (The Scripps Research Institute Molecular Screening Center, 2012).
The source made the active and inactive calls. The rule behind the calls is not given here.

Molecular target: Nuclear receptor coactivator 1 (Homo sapiens) (UniProt Q15788)
Experiment: NCOA1-driven reporter transcription inhibition – cell-based, luminescence, late-stage follow-up (AID 651796)
Settings: cell-based SRC1 reporter

Nuclear receptor coactivator 1 (Homo sapiens), sequence (Q15788 whole entry, looked up): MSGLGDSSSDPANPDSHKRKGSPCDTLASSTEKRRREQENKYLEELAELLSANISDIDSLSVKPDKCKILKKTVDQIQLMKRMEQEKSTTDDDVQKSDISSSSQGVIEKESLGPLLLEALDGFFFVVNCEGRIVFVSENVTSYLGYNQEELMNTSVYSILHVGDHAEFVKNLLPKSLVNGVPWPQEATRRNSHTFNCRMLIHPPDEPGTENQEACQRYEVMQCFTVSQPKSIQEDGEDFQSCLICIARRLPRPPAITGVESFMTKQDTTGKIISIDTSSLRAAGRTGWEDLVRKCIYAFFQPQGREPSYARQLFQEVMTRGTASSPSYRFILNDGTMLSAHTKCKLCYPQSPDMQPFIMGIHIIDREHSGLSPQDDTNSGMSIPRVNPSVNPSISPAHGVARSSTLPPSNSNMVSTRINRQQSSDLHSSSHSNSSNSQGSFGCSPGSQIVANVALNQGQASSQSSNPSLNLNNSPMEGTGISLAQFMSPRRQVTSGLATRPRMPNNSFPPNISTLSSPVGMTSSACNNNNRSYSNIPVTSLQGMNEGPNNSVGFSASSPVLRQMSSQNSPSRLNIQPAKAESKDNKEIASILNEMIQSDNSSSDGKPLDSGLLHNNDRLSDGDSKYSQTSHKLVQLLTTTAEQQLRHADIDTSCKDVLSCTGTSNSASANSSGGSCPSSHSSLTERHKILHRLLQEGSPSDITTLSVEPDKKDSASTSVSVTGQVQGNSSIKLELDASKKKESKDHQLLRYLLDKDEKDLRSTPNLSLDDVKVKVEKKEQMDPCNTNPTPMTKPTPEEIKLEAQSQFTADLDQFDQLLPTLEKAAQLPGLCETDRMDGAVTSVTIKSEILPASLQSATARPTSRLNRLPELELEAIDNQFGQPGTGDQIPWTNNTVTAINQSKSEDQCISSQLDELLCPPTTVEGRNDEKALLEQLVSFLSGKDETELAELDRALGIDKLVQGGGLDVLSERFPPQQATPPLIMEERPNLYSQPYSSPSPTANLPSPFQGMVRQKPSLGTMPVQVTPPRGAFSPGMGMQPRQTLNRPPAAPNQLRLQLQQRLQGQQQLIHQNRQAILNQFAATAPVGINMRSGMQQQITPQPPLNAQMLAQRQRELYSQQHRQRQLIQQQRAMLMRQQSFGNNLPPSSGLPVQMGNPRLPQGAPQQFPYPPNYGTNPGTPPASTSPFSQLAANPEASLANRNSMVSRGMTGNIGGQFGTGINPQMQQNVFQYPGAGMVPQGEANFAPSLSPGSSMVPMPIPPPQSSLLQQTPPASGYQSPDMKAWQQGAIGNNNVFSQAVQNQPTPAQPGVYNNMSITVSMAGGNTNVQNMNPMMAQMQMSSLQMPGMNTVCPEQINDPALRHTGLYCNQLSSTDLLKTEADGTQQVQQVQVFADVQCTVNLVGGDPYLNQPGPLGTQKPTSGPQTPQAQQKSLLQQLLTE

SMILES	IC50
COc1ccc(NC(=O)CN(C)C(=O)C2(c3ccccc3)CCCC2)cc1	9.94 µM
COc1ccc(Nc2ncnc3ccc(Br)cc23)c(OC)c1	inactive
